Laboratory results as given in PubChem BioAssay (NCI).
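96-well plates; 48 h exposure; 5 concentrations. Endpoints by linear interpolation between flanking doses. Not reached: highest tested concentration assigned. Here, GI50 denotes the concentration required for 50% inhibition of growth. Definition used: TGI = concentration required for complete inhibition of growth.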

Tests used:
Experiment in all cases: NCI tumour cell line growth inhibition, 48 h
SW-620 colon = tested on: SW-620 colon
RXF 393 renal = tested on: RXF 393 renal
ACHN renal = tested on: ACHN renal
SNB-75 CNS = tested on: SNB-75 CNS
SR leukemia = tested on: SR leukemia
NCI-H23 lung = tested on: NCI-H23 lung
OVCAR-4 ovarian = tested on: OVCAR-4 ovarian
SN12C renal = tested on: SN12C renal
786-0 renal = tested on: 786-0 renal
U251 CNS = tested on: U251 CNS

Compound	GI50 (SW-620 colon) [nM]	TGI (SW-620 colon) [nM]	GI50 (RXF 393 renal) [nM]	TGI (RXF 393 renal) [µM]	GI50 (ACHN renal) [nM]	TGI (ACHN renal) [µM]	GI50 (SNB-75 CNS) [µM]	TGI (SNB-75 CNS) [µM]	GI50 (SR leukemia) [nM]	TGI (SR leukemia) [µM]	GI50 (NCI-H23 lung) [nM]	TGI (NCI-H23 lung) [µM]	GI50 (OVCAR-4 ovarian) [nM]	TGI (OVCAR-4 ovarian) [µM]	GI50 (SN12C renal) [µM]	TGI (SN12C renal) [µM]	GI50 (786-0 renal) [µM]	TGI (786-0 renal) [µM]	GI50 (U251 CNS) [nM]	TGI (U251 CNS) [µM]
COc1cc([C@@H]2c3cc4c(cc3C(O[C@@H]3O[C@@H]5CO[C@@H](c6cccs6)OC5[C@H](O)[C@H]3O)C3COC(=O)[C@@H]32)OCO4)cc(OC)c1O (some centres not stated)	60.3	1630	105	0.534	26.9	0.711	0.0659	0.491	< 5	0.0249	28.8	0.482	401	3.95	0.0272	5.68	0.0336	0.216	25.6	1.37
Cn1cc(-c2csc(-c3cccc(F)c3)n2)c2cccnc21	16700	30500	16000	34.4	18200	50.7	35.7	> 100	13500	> 100	17300	36	27600	78.6	15.6	29.5	16.1	30.4	15500	31.8
NCCCCn1c2c(c3ccccc3c1=O)C(=O)c1ccccc1-2	< 18.5	1380	644		16.1	0.123	0.372	2.37		0.0486	129	0.655	542	5.08	0.0385	0.244	0.0639	0.573	48.5	0.824
O=C(C[C@@H](C(=O)NCc1cccc(C(F)(F)F)c1)N1C(=O)[C@@H](N2C(=O)OC[C@@H]2c2ccccc2)[C@H]1/C=C/c1ccccc1)NC1CCN(Cc2ccccc2)CC1	3910	17300	1870	4.88	31200	> 100	6.21	23	1890	5.43	4190	17.6	1770	4.43	9.46	30.7	6.51	22.6	4580	17.2
COc1ccc(OC(=O)O[C@H]2[C@H](O[C@H]3[C@@H](O)COC(O[C@H]4C[C@H]5[C@@H]6CC=C7C[C@@H](O)CC[C@]7(C)[C@H]6CC[C@]5(C)[C@H]4[C@H](C)C(=O)CCC(C)C)[C@@H]3OC(C)=O)OC[C@@H](O)[C@@H]2O)cc1 (some centres not stated)	29.5	1130	< 10		496	18	< 0.01	10.9	10.2	21.4	966	19.1	1120	20.3	11.2	23.8	< 0.01	3.81	12.1	16.2
COc1ccc(C2CC(=O)c3c(OC)cc(OC)cc3O2)cc1 (configuration not stated)	> 100000	> 100000	> 100000	> 100	> 100000	> 100	> 100	> 100	> 100000	> 100	> 100000	> 100	> 100000	> 100	> 100	> 100	> 100	> 100	> 100000	> 100
